According to publication PMC10355216, “The C-terminal tail of CSNAP attenuates the CSN complex” (Life Science Alliance, 2023):
Where no end group is shown, it is not given here.

How the values were obtained:
CSN complex = assay: Reciprocal co-immunoprecipitation (anti-CSN3, anti-GFP) of Cer fusions in HAP1 cells; assay type: cell-based; details: peptides fused to Cer expressed in HAP1 cells; anti-CSN3 and anti-GFP pull-downs
Description: To clarify the ability of C-CSNAP peptides to displace CSNAP in cells, we stably expressed four versions of CSNAP, the 16AA and 20AA C-CSNAP, D42E and scrambled peptides fused to the fluorescent protein Cer in HAP1 cells. As control, we used HAP1 cells expressing Cer only. We then performed reciprocal co-immunoprecipitation analyses, using antibodies against CSN3 and GFP recognizing Cer (Figs 6A and S5). […] This is reflected by the higher intensity of the GFP band upon CSN3 pull down, and by the more intense CSN3 band following GFP co-immunoprecipitation.
(§1) Figure 6. Expression of C-CSNAP reduces cellular proliferation rate. (A) Immunoprecipitation analysis using anti-GFP antibody recognizing cerulean (Cer) from lysates of cells expressing the Cer-fused 16AA, 20AA, D42E, and scrambled C-CSNAP in HAP1 WT cells. The COP9 signalosome complex was pulled down from all cells, except when Cer is expressed alone or fused to the scrambled C-CSNAP. Similarly, reciprocal immunoprecipitation by an anti-CSN3 antibody pulled down only the Cer-fused 16AA, 20AA, or D42E C-CSNAP. (B) Stable overexpression of 16AA and 20AA C-CSNAP–Cer in HAP1 WT cells reduces their rate of proliferation. […] One-way ANOVA (P < 0.05) with Dunnett’s multiple comparisons test was used to compare means *P < 0.05, **P < 0.01.
Figure S5. […]

HAP1 WT cells = assay: Resazurin-based cell proliferation assay; details: HAP1 WT cells stably expressing Cer fusions, 24 h after plating, five independent experiments
Description: as §1, with “0.01. […]” for “0.01.”
HAP1 WT cells stably expressing Cer, 16AA, and 20AA C-CSNAP–Cer were trypsinized and counted. […] Fluorescence intensities at 560/600 nm (ex/em) were measured, and average intensities of four replicates in each plate were calculated, normalized against WT after background subtraction, and normalized values from five independent experiments were compared on a bar graph with SEM. Significance was calculated using repeated measurment one-way ANOVA (P < 0.05) with Dunnett’s multiple comparisons test was used to compare means to Cer as control *P < 0.05, **P < 0.01.

CSN complex (CSN5) = assay: Co-immunoprecipitation (anti-GFP) of transiently expressed Cer fusions in HAP1 WT cells; assay type: cell-based; details: transient expression of Cer fusions, anti-GFP pull-down, CSN5/GFP densitometry, at least three experiments
Description: To define whether C-CSNAP can displace the endogenous CSN subunit from the complex, we transiently expressed several versions of C-CSNAP peptides with differing lengths, fused to the fluorescent protein cerulean (Cer) in WT HAP1 cells (Fig 2A) and cells lacking CSNAP (ΔCSNAP cells) (Fig S2A). We then performed co-immunoprecipitation analyses, using an antibody against GFP that recognizes the Cer tag (Figs 2B and C and S2B). […] Moreover, in ΔCSNAP cells, all C-CSNAP derivatives were efficiently incorporated into CSN (Fig S2B), whereas in WT cells, differential integration was observed (Fig 2B). […] Truncations of the 16 amino acid stretch from either end decreased or abolished the incorporation efficiency (Fig 2B and C).
Figure 2. The last 16 amino acids of CSNAP efficiently displace the endogenous CSNAP subunit. (A) The different CSNAP C-terminal sequences that were examined. The 16 amino acid sequence is highlighted in blue, and the N- or C-terminally truncated forms are labelled in green and magenta, respectively (numbering of residues are corresponding to full length CSNAP). […] (C) Quantification of the densitometry results of at least three independent immunoprecipitation experiments using an anti-GFP antibody, represented as mean ratios of immunoprecipitated CSN5/GFP, followed by normalization to the sample transfected with Cer, plotted as mean ± SEM. […]

CSN^ΔCSNAP complex = assay: BIAcore surface plasmon resonance biosensor assay; details: C-terminally biotinylated peptide immobilized on SA chip, CSN^ΔCSNAP 1-8 nM injected, 180 s binding, 1,000 s dissociation, 25°C, 1:1 binding fit
Description: To validate the peptide array results, we used the surface plasmon resonance biosensor (Biacore) method to measure the binding affinities between C-CSNAP peptides and CSN^ΔCSNAP. We selected three peptides, the 16 residue C-terminal fragment (^42[…]^57, 16AA C-CSNAP) (Fig 4B), the 20 amino acid peptide (^38[…]^57, 20AA C-CSNAP) (Fig 4C), and a peptide containing the substitution of Asp to Glu at position 42 (D42E C-CSNAP) (Fig 4D). As a positive control, we used full-length CSNAP (Fig 4A), and a scrambled peptide ([…]) (Fig 4E) was used as a negative control. Interaction between the CSN^ΔCSNAP complex and the CSNAP variants was measured using a setting of 180 s binding followed by 1,000 s dissociation time (Fig 4).
Figure 4. C-CSNAP peptides display high affinity towards the CSN^ΔCSNAP complex. […] (F) Binding rate constants and affinities were determined via Biacore Evaluation Software analysis of SPR sensograms. […]
The experiments were carried out using Biacore SA200 SPR sensor (Biacore, GE Healthcare) with control software version 1.1 and Cytiva Series S Sensor chip SA. […] Data were analyzed in SA200 evaluation software version 1.1, with automatic fitting using parameter setting 1:1 binding (ka, kd, and tc global fit, Rmax and RI local fit).

Row | Kd (CSN^ΔCSNAP complex) | Substance | integration into the CSN complex, based on band intensities, in words (CSN complex) | cell proliferation compared with cells expressing only Cer, in words (HAP1 WT cells) | association with / incorporation into the CSN complex, in words (CSN complex (CSN5))
1 |  | 16AA C-CSNAP–Cer: 16AA C-CSNAP fused to the fluorescent protein cerulean (Cer), expressed in HAP1 cells (DFFNDFEDLFDDDDIQ; also: C-terminal fusion to Cerulean via Gly-Ser-Gly-Ser linker) | lower | significant reductions in cell proliferation | highest degree of association with the CSN complex
2 | No measurable binding | IDGENVSNLDYARKAT [scrambled peptide] |  |  | 
